These results are taken from US9828352B2, “Phenyl carbamates and their use as inhibitors of the fatty acid amide hydrolase (FAAH) enzyme and modulators of the D3 dopamine receptor (D3DR)” (FONDAZIONE ISTITUTO ITALIANO DI TECNOLOGIA, priority 2013, dated 2017).

As usually defined, the IC50 is the point on the concentration scale where inhibition reaches its midpoint. The term EC50 denotes the concentration giving half of the maximal effect. A higher EC50 goes with weaker potency.

One test addresses T1, rat FAAH (Rattus norvegicus, UniProt P97612).
T1 construct: from tissue; host or cells: male Sprague Dawley rat brain, total homogenate
T1 sequence (P97612 1-579): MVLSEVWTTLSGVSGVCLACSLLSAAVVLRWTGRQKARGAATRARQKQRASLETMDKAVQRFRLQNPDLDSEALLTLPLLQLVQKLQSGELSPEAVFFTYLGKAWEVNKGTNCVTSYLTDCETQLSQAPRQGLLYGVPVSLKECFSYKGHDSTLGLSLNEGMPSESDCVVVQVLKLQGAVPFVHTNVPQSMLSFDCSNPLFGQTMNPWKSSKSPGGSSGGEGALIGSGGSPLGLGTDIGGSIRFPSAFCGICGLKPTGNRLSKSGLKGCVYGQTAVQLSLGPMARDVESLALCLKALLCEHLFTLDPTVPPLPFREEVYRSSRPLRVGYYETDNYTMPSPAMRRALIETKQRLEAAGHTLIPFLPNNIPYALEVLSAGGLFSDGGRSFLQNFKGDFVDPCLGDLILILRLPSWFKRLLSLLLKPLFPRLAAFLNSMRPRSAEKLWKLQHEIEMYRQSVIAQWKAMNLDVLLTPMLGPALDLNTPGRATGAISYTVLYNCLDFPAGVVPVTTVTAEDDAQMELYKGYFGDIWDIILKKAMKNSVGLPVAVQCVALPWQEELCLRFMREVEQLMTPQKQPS
In words: Rat Fatty Acid Amide Hydrolase (FAAH) assay, rat brain homogenate, [3H]-anandamide. In kind it is biochemical. To be noted: 3 separate experiments, each in duplicate. The protocol:
Rat Fatty Acid Amide Hydrolase (FAAH) Assay
Male Sprague Dawley rat brains were homogenized in a potter in 20 mM Tris-HCl pH7.4, 0.32M sucrose, protein concentration was measured and samples aliquot stored at −80° C. until use.
FAAH activity was measured using 50 μg of total rat brain homogenate pre-incubated for 10 minutes at 37° C. in 445.5 μL of assay buffer (50 mM Tris-HCl pH7.4, 0.05% Fatty acid-free BSA) with 4.5 μL of inhibitor at appropriate concentration in DMSO, or DMSO alone to measure FAAH total activity. The blank (no activity sample) was prepared with 445.5 μL of assay buffer and 4.5 μL of DMSO without the 50 μg of total rat brain homogenate.
After 10 minutes of pre-incubation, the reaction was started by the addition of 50 μL of substrate for 30 min at 37° C. The substrate is prepared in assay buffer in order to achieve the final concentration of 1 μM Arachidonoyl-ethanolamide (N.90050, Cayman Chemical) and 0.6 nM Anandamide [ethanolamine-1-^3H] (American Radiolabeled Chemicals Inc., ART.0626, 1 mCi/ml, specific activity 60 Ci/mmol).
The reaction was stopped by with the addition of cold 1:1 CHCl3/Methanol. After 10 minutes of centrifugation (845×g at 4° C.) 600 μL of the aqueous phase was transferred into scintillation vials previously filled with 3 mL of scintillation fluid (ULTIMA GOLD, Cat. 6013329, Perkin Elmer Inc.).
Radioactivity was measured by liquid scintillation counting (Microbeta2 Lumijet, Perkin Elmer Inc.).
(§1) EC50 or IC50 values (concentrations causing half-maximal response or inhibition of control agonist response) were determined by non-linear regression analysis of the Log [concentration]/response curves generated with mean replicate values using a four parameter Hill equation curve fitting with GraphPad Prism 5 (GraphPad Software Inc., CA—USA).

For the next test, the target named is T2, human FAAH-1 (Homo sapiens, UniProt O00519).
T2 construct: expressed in transfected cells; host or cells: Hek293 cells stably transfected with human FAAH-1; membrane preparation
T2 sequence (O00519 1-579): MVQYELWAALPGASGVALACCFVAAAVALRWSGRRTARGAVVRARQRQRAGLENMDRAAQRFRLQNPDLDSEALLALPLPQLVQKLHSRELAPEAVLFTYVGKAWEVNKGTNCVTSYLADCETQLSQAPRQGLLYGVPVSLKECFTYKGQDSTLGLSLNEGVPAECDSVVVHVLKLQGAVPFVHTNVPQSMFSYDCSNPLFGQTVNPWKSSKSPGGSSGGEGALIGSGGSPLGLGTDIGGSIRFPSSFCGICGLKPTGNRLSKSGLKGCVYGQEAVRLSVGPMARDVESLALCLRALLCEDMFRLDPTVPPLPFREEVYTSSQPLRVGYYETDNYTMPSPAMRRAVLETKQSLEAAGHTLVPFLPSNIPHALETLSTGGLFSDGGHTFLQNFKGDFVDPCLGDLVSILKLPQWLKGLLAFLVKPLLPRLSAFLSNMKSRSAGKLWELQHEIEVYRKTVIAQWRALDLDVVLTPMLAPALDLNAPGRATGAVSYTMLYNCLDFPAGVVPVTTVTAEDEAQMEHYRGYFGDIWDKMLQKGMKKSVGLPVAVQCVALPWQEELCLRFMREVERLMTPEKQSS
In words: Human recombinant Fatty Acid Amide Hydrolase-1 (FAAH-1) fluorescent assay, Hek293-hFAAH-1 membranes. To be noted: 3 separate experiments, each in triplicate. The format is biochemical. As to the method: Human Recombinant Fatty Acid Amide Hydrolase-1 (FAAH-1) Fluorescent Assay
Hek293 cells stably transfected with human FAAH-1 were maintained in DMEM containing 10% FBS, 1% pen/strep and 500 μg/mL G418 to maintain selective pressure. Cells were scraped off with cold PBS1× pH7.4 from plates and collected by centrifugation (500 g, 10 minutes, 4° C.); cells pellets were re-suspended in homogenizing buffer (20 mM Tris-HCl pH7.4, 0.32M sucrose), disrupted by sonication (10 pulses, 5 times) and centrifuged at 800×g for 15 minutes at 4° C.; the resultant supernatants collected were then centrifuged at 105,000×g for 1 hr at 4° C. and membranes pellets were re-suspended in PBS1× pH7.4.
Protein concentration was measured and samples aliquot stored at −80° C. until use.
The blank (no activity) was prepared using 180 μL of assay buffer without Hek293-hFAAH-1 membrane preparation and 10 μL of DMSO.
After 50 minutes of pre-incubation of compounds with the enzyme at 37° C., the reaction was started by the addition of 10 μL of substrate (AMC Arachidonyl Amide, N.10005098, Cayman Chemical) for 30 min at 37° C. The substrate is prepared in Ethanol in order to achieve the final concentration of 2 μM.
Fluorescence was detected with Tecan Infinite M200 nanoquant (Tecan Group Ltd.) at an excitation wavelength 350 nm and an emission wavelength 460 nm.
as §1

The next test addresses T3, human-D3R (Homo sapiens, UniProt P35462).
T3 construct: expressed in transfected cells; host or cells: CHO cell line stably transfected with human D3R
In words: D3 Dopamine Receptor (D3dR) cellular assay, cAMP HTRF functional assay in human-D3R expressing CHO cells. In kind it is cell-based. As to the method:
D3 Dopamine Receptor (D3dR) Cellular Assay
Activity on D3R was tested with a cAMP functional assay on a stably transfected human-D3R expressing CHO cell line. On the day of the assay performance the cells were washed twice with PBS (w/o calcium and magnesium) and dislodged with a cell scraper, transferred to PBS, centrifuged and re-suspended in HBSS (w/o calcium and magnesium), supplemented with 1 g/L glucose and […] IBMX. The cell suspension was seeded on a 384 well plate (Greiner) and the assay was performed by adding compounds either test compounds alone (for agonist activity), or with test compound after a pre-incubation with 10 nM Dopamine as a stimulant (for antagonistic activity). After incubation (30 min at RT) the cell stimulation was stopped by adding the detecting reagents (cAMP-XL665 and anti-cAMP cryptate) diluted in lysis buffer. The signal was quantified by Homogenous Time-Resolved Fluorescence (HTRF) on a Perkin Elmer Envision plate reader after one hour of incubation at RT.
as §1
A general note: In TR-FRET formats the signal depends on donor and acceptor labels being close together.

T3 sequence (P35462 whole entry): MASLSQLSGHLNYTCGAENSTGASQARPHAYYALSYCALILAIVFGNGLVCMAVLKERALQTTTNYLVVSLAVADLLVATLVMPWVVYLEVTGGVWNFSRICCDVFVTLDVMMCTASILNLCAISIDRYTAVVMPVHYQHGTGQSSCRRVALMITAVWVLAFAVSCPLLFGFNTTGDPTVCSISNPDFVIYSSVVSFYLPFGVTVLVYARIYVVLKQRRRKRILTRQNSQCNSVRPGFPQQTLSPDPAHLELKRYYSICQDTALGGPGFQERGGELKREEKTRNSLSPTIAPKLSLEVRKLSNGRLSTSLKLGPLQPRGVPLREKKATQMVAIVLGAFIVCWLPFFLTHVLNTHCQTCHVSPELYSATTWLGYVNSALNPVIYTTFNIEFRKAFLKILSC

Compound `NC(=O)c1cccc(-c2ccc(OC(=O)NCCCCN3CCN(c4cccc(Cl)c4Cl)CC3)cc2)c1` [Example 7, [4-(3-carbamoylphenyl)phenyl] N-[4-[4-(2,3-dichlorophenyl)piperazin-1-yl]butyl]carbamate] had an IC50 against rat FAAH of 0.72 nM.
The compound `COc1ccccc1N1CCN(CCCCNC(=O)Oc2cccc(-c3cccc(C(N)=O)c3)c2)CC1` [Example 1, [3-(3-carbamoylphenyl)phenyl] N-[4-[4-(2-methoxyphenyl)piperazin-1-yl]butyl] carbamate] came in with an IC50 on rat FAAH of 0.94 nM.
For the compound `NC(=O)c1cccc(-c2ccc(OC(=O)NCCCN3CCN(c4cccc(Cl)c4Cl)CC3)cc2)c1` [Example 6, [4-(3-carbamoylphenyl)phenyl] N-[3-[4-(2,3-dichlorophenyl)piperazin-1-yl]propyl]carbamate], at rat FAAH, the IC50 is 1.5 nM.
For `NC(=O)c1cccc(-c2cccc(OC(=O)NCCCN3CCN(c4cccc(Cl)c4Cl)CC3)c2)c1` [Example 3, [3-(3-carbamoylphenyl)phenyl] N-[3-[4-(2,3-dichlorophenyl)piperazin-1-yl]propyl]carbamate], the half-inhibitory concentration (IC50) on rat FAAH amounted to 0.11 nM.
Regarding `O=C(NCCCN1CCN(c2ccccc2)CC1)Oc1cccc(-c2ccccc2)c1` [Example 5, (3-phenylphenyl) N-[3-(4-phenylpiperazin-1-yl)propyl]carbamate], the half-inhibitory concentration (IC50) at human FAAH-1 stood at 3.4 nM; against rat FAAH, 3 nM. Moreover, at human-D3R (CHO, 0.5 h, % of 300 nM Dopamine response, read-out: Dopamine D3 % of Agonist Activity), the Emax came to 89.7%. Further, on human-D3R (cAMP assay, CHO human-D3R, one experiment in duplicate), the response was half-maximal at 13 nM (EC50).
As to `NC(=O)c1cccc(-c2cccc(OC(=O)NCCCN3CCN(c4ccccc4)CC3)c2)c1` [Example 4, [3-(3-carbamoylphenyl)phenyl] N-[3-(4-phenylpiperazin-1-yl)propyl]carbamate], inhibition at rat FAAH was half-maximal at 0.32 nM (IC50).
Still for that read-out and setting: the value for `NC(=O)c1cccc(-c2cccc(OC(=O)NCCCCN3CCN(c4cccc(Cl)c4Cl)CC3)c2)c1` [Example 2, [3-(3-carbamoylphenyl)phenyl] N-[4-[4-(2,3-dichlorophenyl)piperazin-1-yl]butyl] carbamate] was 0.3 nM.
